According to patent US20260098031A1, “MONOCYCLIC COMPOUND HAVING GLP-1 RECEPTOR AGONIST ACTIVITY” (Shionogi & Co., Ltd., priority 2022, published 2026):

Molecular target: T1, Human GLP-1 receptor (Homo sapiens, UniProt P43220)
T1 construct: expressed in transfected cells; host or cells: CHO-K1
Experiment: Measurement of GLP-1 receptor agonist activity (cAMP assay in hGLP-1R/CHO-K1 cells)
Assay type: cell-based
Conditions: for Emax: CHO-K1, maximum effect, cAMP with 2 nM human GLP-1 (7-36) = 100%, DMSO only = 0%; for EC50: cAMP increase in hGLP-1R/CHO-K1 cells, 1 hour at 37° C., with Forskolin
Description: Human GLP-1 receptor stably expressing cells (hGLP-1R/CHO-K1 cells) are cultured in an α-MEM medium (Sigma) containing 10% FBS (Hyclone), 2% GlutaMAX (Gibco), 1% G418 (Nacalai Tesque), and 1% Penicillin-Streptomycin Mixed Solution (Sigma) at 37° C. under 5% CO2 conditions, and recovered by treating a 10 fold diluted 5.0 g/1-trypsin/5.3 mmol/1-EDTA solution (Nacalai Tesque) and cryopreserved.
A DMSO solution containing the compound of the present invention or human GLP-1 (7-36) (Phoenix Pharmaceuticals) is dispensed into a 384-well microplate (Greiner) at 62.5 nL/well, and in addition, 400 μM Forskolin (Nacalai Tesque) is dispensed therein at 7.5 nL/well. Subsequently, the frozen GLP-1 R/CHO-K1 cells are thawed in a thermostatic bath at 37° C., suspended in HBSS buffer (GIBCO) containing 0.1% BSA (Sigma), 20 mM HEPES, 0.1 mM IBMX (Sigma), and 0.2 mM RO20-1724 (Calbiochem) at 2×10^4 cells/mL, and the cell suspension is added at 6 μL/well. The solution was incubated at 37° C. for 1 hour and intracellular cAMP concentration is measured using cAMP Gs dynamic kit (Cisbio) according to the protocol attached to the product. Specifically, a cAMP-d2/Anti-cAMP-Cryptate (1/1) mixture solution is added in a total amount of 6 μL/well, and is incubated at room temperature for 1 hour, and then, time-resolved fluorescence is measured using PHERAstar (BMG Labtech).
Assuming that the cAMP concentration when human GLP-1 (7-36) is dispensed to a final concentration of 2 nM is 100% and the cAMP concentration when only DMSO is dispensed is 0%, the 50% effective concentration (EC50) and the maximum effect (Emax) of the compound of the present invention are calculated using an increase in the cAMP concentration as an index, using TIBCO Spotfire (TIBCO Software). The dilution concentration or the dilution solvent are changed as necessary.
The compounds of the present invention were tested essentially as described above.

T1 sequence (P43220 24-463): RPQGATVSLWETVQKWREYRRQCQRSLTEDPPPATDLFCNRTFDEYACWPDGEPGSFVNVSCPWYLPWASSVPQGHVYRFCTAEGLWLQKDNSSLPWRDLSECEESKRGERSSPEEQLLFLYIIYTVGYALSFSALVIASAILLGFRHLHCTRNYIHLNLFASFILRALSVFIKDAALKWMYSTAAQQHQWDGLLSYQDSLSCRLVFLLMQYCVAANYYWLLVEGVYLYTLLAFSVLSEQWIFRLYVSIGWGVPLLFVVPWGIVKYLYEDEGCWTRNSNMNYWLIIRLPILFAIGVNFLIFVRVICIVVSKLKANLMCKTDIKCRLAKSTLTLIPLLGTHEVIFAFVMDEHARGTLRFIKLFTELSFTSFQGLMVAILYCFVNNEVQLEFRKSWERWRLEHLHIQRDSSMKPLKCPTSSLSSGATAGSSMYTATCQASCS

Structure (SMILES) | Emax | EC50
CC(NCc1nc2ccc(C(=O)O)cc2n1C[C@@H]1CCO1)c1nc(OCc2ccc(Cl)cc2F)c(C(F)(F)F)cc1F (mixture of isomers) [Compound I-003] | 65.3% | 354 nM
CC(NCc1nc2ccc(C(=O)O)cc2n1C[C@@H]1CCO1)c1ccc(C(F)(F)F)c(OCc2ccc(Cl)cc2F)n1 (mixture of isomers) [Compound I-004] | 60% | 1060 nM
CN(CCc1cnc(OCc2ccc(Cl)cc2F)c(C(F)(F)F)c1)Cc1nc2ccc(C(=O)O)cc2n1C[C@@H]1CCO1 [Compound I-002] | 52% | 2300 nM
CC(c1ccc(C(F)(F)F)c(OCc2ccc(Cl)cc2F)n1)N(C)Cc1nc2ccc(C(=O)O)cc2n1C[C@@H]1CCO1 (stereo partly shown) [Compound I-005] | 74.7% | 86 nM
O=C(O)c1ccc2nc(CNCc3ccc(C(F)(F)F)c(OCc4ccc(Cl)cc4F)n3)n(C[C@@H]3CCO3)c2c1 [Compound I-006] | 55% | 2830 nM
